Source: patent US20250034173A1, “PYRIDO[4,3-D]PYRIMIDINE COMPOUNDS” (PFIZER INC., priority 2023, published 2025)

Key:
KRAS Wild Type = KRAS Wild Type (Homo sapiens (Human), UniProt P01116); experiment: SPR binding affinity and kinetics, GTPγS-loaded KRAS Wild Type; settings: GTPγS loaded protein, geomean
Outline: (§1)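 Fits to the SPR data were assessed through c2 and whether residues scattered randomly; dissociation phases ran ≥3600 seconds, regeneration omitted.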

KRAS G12D = KRAS G12D (Homo sapiens (Human), UniProt P01116, G12D); experiment: SPR binding affinity and kinetics, GTPγS-loaded KRAS G12D; settings: GTPγS loaded protein, geomean
Outline: as §1

KRAS G12C = KRAS G12C (Homo sapiens (Human), UniProt P01116, G12C); experiment: SPR binding affinity and kinetics, GTPγS-loaded KRAS G12C; settings: GTPγS loaded protein, geomean
Outline: as §1

KRAS G12V = KRAS G12V (Homo sapiens (Human), UniProt P01116, G12V); experiment: SPR binding affinity and kinetics, GTPγS-loaded KRAS G12V; settings: GTPγS loaded protein, geomean
Outline: as §1

HRAS Wild Type = HRAS Wild Type (Homo sapiens (Human), UniProt P01112); experiment: SPR binding affinity and kinetics, GTPγS-loaded HRAS Wild Type; settings: GTPγS loaded protein, geomean
Source text: (§2) No additional regeneration was used.
(§3) Compound dissociation was monitored for at least 3600 seconds. […] No additional regeneration was used.
(§4) The adequateness of the fit was judged by c2 values and the randomness of residue distribution.

NRAS Wild Type = NRAS Wild Type (Homo sapiens (Human), UniProt P01111); experiment: SPR binding affinity and kinetics, GTPγS-loaded NRAS Wild Type; settings: GTPγS loaded protein, geomean
Source text: as §2, §3, §4

[1] = tested on: H358 (non-small cell lung cancer cell line); experiment: KRAS Cell Titer Glo (CTG) cell proliferation assay, H358; assay type: cell-based; settings: H358 cells, 7-day CTG, geomean IC50
Source text: (§5) The CellTiter-Glo® (CTG) Luminescent Cell Viability Assay is a homogeneous method of determining the number of viable cells in culture based on quantitation of the ATP present, an indicator of metabolically active cells. The CTG is designed for use with multi-well formats, making it ideal for automated high-throughput screening (HTS), cell proliferation and cytotoxicity assays. The homogeneous assay procedure involves adding the single reagent (CellTiter-Glo® Reagent) directly to cells cultured in serum-supplemented medium. Cell washing, removal of medium and multiple pipetting steps are not required. The system detects as few as 15 cells per well in a 384-well format in 10 minutes after adding reagent and mixing.
(§6) Cells are grown in humidified 5% CO2 incubator at 37° C. using the culture conditions outlined below. All cell culture media reagents were purchased from Gibco. Cell lines purchased from ATCC: H358 (non-small cell lung cancer cell line), SW620 (colorectal cancer cell line), PANC08.13 (RPM11640+10% FBS+10 units/mL Insulin, pancreatic cancer cell line). Test and control compounds are dispensed as nanoliter drops according to desired final concentrations in 0.1% DMSO using Echo Acoustic Dispenser onto 384 assay plates (Corning, Cat #3764) prior to cell seeding. Cells were seeded in 40 μL volume per well at the following cell densities (cells per well): H358 (300), SW620 (750), PANC 08.13 (600). Cells are incubated in the presence of compound for 7-days. Viability is determined on Day 7 using CellTiter-Glo® (CTG) Luminescent Cell Viability Assay (Promega). CTG is added to a […] per well and incubated at room temperature for 15 minutes before luminescence is captured using an EnVision Reader with LUM384 US protocol. Data is analyzed using Activity Base to determine compound response and will be represented either as a percent effect (PCTEFF) or percent control (PCTOCTL) as described: Zero percent effect control (ZPE) (Negative control)—100% DMSO. Hundred percent effect (HPE) (Positive control)—1 uM Trametinib (GSK1120212, MEK inhibitor) (4 nl of 10 mM and 36 nl of DMSO per well). The following equations/nomenclature are used (% Effect; PCTEFF) and (% of Control; PCTOCTL): PCTEFF: 100*(Raw_Data_Value−HPE/ZPE−HPE), PCTOCTL: 100*Raw_Data_Value/User_Defined_Array), where the User_Defined_Array is either summarized HPE or ZPE.
(§7) Cells with “nd” indicate compound not tested in that particular assay at time of writing. It is to be understood that the geomean IC50 data may change slightly over time with increasing repeat data (ie: increasing n #).

[2] = tested on: SW620 (colorectal cancer cell line); experiment: KRAS Cell Titer Glo (CTG) cell proliferation assay, SW620; assay type: cell-based; settings: SW620 cells, 7-day CTG, geomean IC50
Source text: as §5, §6, §7

[3] = tested on: PANC08.13 (pancreatic cancer cell line); experiment: KRAS Cell Titer Glo (CTG) cell proliferation assay, PANC08.13; assay type: cell-based; settings: PANC08.13 cells, 7-day CTG, geomean IC50
Source text: as §5, §6, §7

[4] = Homo sapiens, PANC-08-13, 168 h

Kd (KRAS Wild Type) [nM]	Kd (KRAS G12D) [nM]	Kd (KRAS G12C) [nM]	Kd (KRAS G12V) [nM]	Kd (HRAS Wild Type) [µM]	Kd (NRAS Wild Type) [µM]	IC50 ([1]; Homo sapiens, NCI-H358, 168 h) [nM]	IC50 ([2]; Homo sapiens, SW-620, 168 h) [nM]	IC50 [3, 4] [nM]	IC50 [1] [nM]	IC50 [2] [nM]	IC50 [3] [nM]	Molecule
61	74	42	81	> 10	> 10	–	–	–	–	–	–	COC/C=C1\CN2CCC[C@@]2(COc2nc3c4c(nc(-c5c6c(cc7[nH]ncc57)CCC[C@H]6OC)c(F)c4n2)OC[C@@H]2COCCCN32)C1 (single isomer, unassigned) [Example 58, (8aS)-4-fluoro-2-{[(2Z,7aS)-2-(2-methoxyethylidene)tetrahydro-1H-pyrrolizin-7a(5H)-yl]methoxy}-5-[(5R*)-5-methoxy-5,6,7,8-tetrahydro-1H-benzo[f]indazol-4-yl]-8a,9,12,13-tetrahydro-8H,11H-7,10-dioxa-1,3,6,13a-tetraazanaphtho[1,8-ab]heptalene]
53	31	47	42	–	–	206	75	105	–	–	–	C=C1CN2CCC[C@@]2(COc2nc3c4c(nc(-c5c6c(cc7[nH]ncc57)CCCC6)c(F)c4n2)OC[C@@H]2COCCCN32)C1 [Example 50, (8aS)-4-fluoro-2-{[(7aS)-2-methylidenetetrahydro-1H-pyrrolizin-7a(5H)-yl]methoxy}-5-(5,6,7,8-tetrahydro-1H-benzo[f]indazol-4-yl)-8a,9,12,13-tetrahydro-8H,11H-7,10-dioxa-1,3,6,13a-tetraazanaphtho[1,8-ab]heptalene]
1	1	< 1	1	> 10	> 10	–	–	–	–	–	–	C[C@@H]1CCCc2cc3[nH]ncc3c(-c3nc4c5c(nc(OC[C@@]67CCCN6C/C(=C\F)C7)nc5c3F)N3CCCOC[C@H]3CO4)c21 [Example 54, (8aS)-4-fluoro-2-{[(2Z,7aS)-2-(fluoromethylidene)tetrahydro-1H-pyrrolizin-7a(5H)-yl]methoxy}-5-[(5R)-5-methyl-5,6,7,8-tetrahydro-1H-benzo[f]indazol-4-yl]-8a,9,12,13-tetrahydro-8H,11H-7,10-dioxa-1,3,6,13a-tetraazanaphtho[1,8-ab]heptalene]
< 1	< 1	< 1	< 1	> 10	> 10	–	–	–	–	–	–	C=C1CN2CCC[C@@]2(COc2nc3c4c(nc(-c5c6c(cc7[nH]nc(Cl)c57)CCC[C@H]6C)c(F)c4n2)OC[C@@H]2COCCCN32)C1 [Example 62, (8aS)-5-[(5R)-3-chloro-5-methyl-5,6,7,8-tetrahydro-1H-benzo[f]indazol-4-yl]-4-fluoro-2-{[(7aS)-2-methylidenetetrahydro-1H-pyrrolizin-7a(5H)-yl]methoxy}-8a,9,12,13-tetrahydro-8H,11H-7,10-dioxa-1,3,6,13a-tetraazanaphtho[1,8-ab]heptalene]

Second part, the molecule before the results:

Molecule	Kd (KRAS Wild Type) [nM]	Kd (KRAS G12D) [nM]	Kd (KRAS G12C) [nM]	Kd (KRAS G12V) [nM]	Kd (HRAS Wild Type) [µM]	Kd (NRAS Wild Type) [µM]	IC50 ([1]; Homo sapiens, NCI-H358, 168 h) [nM]	IC50 ([2]; Homo sapiens, SW-620, 168 h) [nM]	IC50 [3, 4] [nM]	IC50 [1] [nM]	IC50 [2] [nM]	IC50 [3] [nM]
F/C=C1\CN2CCC[C@@]2(COc2nc3c4c(nc(-c5c(C6CC6)c(Cl)cc6[nH]ncc56)c(F)c4n2)OC[C@@H]2COCCCN32)C1 [Example 16, (8aS)-5-(6-chloro-5-cyclopropyl-1H-indazol-4-yl)-4-fluoro-2-{[(2Z,7aS)-2-(fluoromethylidene)tetrahydro-1H-pyrrolizin-7a(5H)-yl]methoxy}-8a,9,12,13-tetrahydro-8H,11H-7,10-dioxa-1,3,6,13a-tetraazanaphtho[1,8-ab]heptalene]	4	3	4	4	> 10	> 10	22	23	2	–	–	–
Fc1c(-c2c(C3CC3)c(Cl)cc3[nH]ncc23)nc2c3c(nc(OC[C@]45CCCN4CC4(CC4)C5)nc13)N1CCCOC[C@H]1CO2 [Example 19, (8aS)-2-{[(7′aR)-dihydro-1′H,3′H-spiro[cyclopropane-1,2′-pyrrolizin]-7′a(5′H)-yl]methoxy}-5-(6-chloro-5-cyclopropyl-1H-indazol-4-yl)-4-fluoro-8a,9,12,13-tetrahydro-8H,11H-7,10-dioxa-1,3,6,13a-tetraazanaphtho[1,8-ab]heptalene]	8	6	5	9	> 10	> 10	62	103	3	–	–	–
C=C1CN2CCC[C@@]2(COc2nc3c4c(nc(-c5c(C6CC6)ccc6[nH]ncc56)c(F)c4n2)OC[C@@H]2COCCCN32)C1 [Example 20, (8aS)-5-(5-cyclopropyl-1H-indazol-4-yl)-4-fluoro-2-{[(7aS)-2-methylidenetetrahydro-1H-pyrrolizin-7a(5H)-yl]methoxy}-8a,9,12,13-tetrahydro-8H,11H-7,10-dioxa-1,3,6,13a-tetraazanaphtho[1,8-ab]heptalene]	91	51	31	50	> 10	> 10	275	400	17	–	–	–
C=C1CN2CCC[C@@]2(COc2nc3c4c(nc(-c5c(C6CC6)c(Cl)cc6[nH]ncc56)c(F)c4n2)OC[C@@H]2COCCN32)C1 [Example 22, (8aS)-5-(6-chloro-5-cyclopropyl-1H-indazol-4-yl)-4-fluoro-2-{[(7aS)-2-methylidenetetrahydro-1H-pyrrolizin-7a(5H)-yl]methoxy}-8a,9,11,12-tetrahydro-8H-7,10-dioxa-1,3,6,12a-tetraazabenzo[4,5]cyclohepta[1,2,3-de]naphthalene]	–	250	–	–	> 10	> 10	636	839	98	–	–	–
(1Z)-1-[(7aS)-7a-({[(8aS)-5-(6-chloro-5-cyclopropyl-1H-indazol-4-yl)-4-fluoro-8a,9,12,13-tetrahydro-8H,11H-7,10-dioxa-1,3,6,13a-tetraazanaphtho[1,8-ab]heptalen-2-yl]oxy}methyl)tetrahydro-1H-pyrrolizin-2(3H)-ylidene]propan-2-ol [Example 60]	25	11	26	18	> 10	> 10	–	–	–	–	–	–
(8aS)-5-(5-chloro-6-fluoro-1H-indazol-4-yl)-4-fluoro-2-{[(7aS)-2-methylidenetetrahydro-1H-pyrrolizin-7a(5H)-yl]methoxy}-8a,9,12,13-tetrahydro-8H,11H-7,10-dioxa-1,3,6,13a-tetraazanaphtho[1,8-ab]heptalene [Example 9]	389	270	430	303	–	–	–	–	–	758	914	140
(8aS)-5-(6-chloro-5-cyclopropyl-1H-indazol-4-yl)-4-fluoro-2-{[(1S,7aS*)-1-methoxy-6-methylidenetetrahydro-1H-pyrrolizin-7a(5H)-yl]methoxy}-8a,9,12,13-tetrahydro-8H,11H-7,10-dioxa-1,3,6,13a-tetraazanaphtho[1,8-ab]heptalene [Example 61]	5	3	4	5	–	–	–	–	–	21	38	11
